Assay results: US20090076044A1, “VEGFR INHIBITORS CONTAINING A ZINC BINDING MOIETY” (priority 2007, published 2009)

Tests used:
[1] = test system: HDAC; assay: HDAC fluorimetric assay kit (HeLa nuclear extract); type: biochemical
Experimental: (b) An In Vitro Assay which Determines the Ability of a Test Compound to Inhibit HDAC Enzymatic Activity.
HDAC inhibitors were screened using an HDAC fluorimetric assay kit (AK-500, Biomol, Plymouth Meeting, Pa.). Test compounds were dissolved in dimethylsulphoxide (DMSO) to give a 20 mM working stock concentration. Fluorescence was measured on a WALLAC Victor 2 plate reader and reported as relative fluorescence units (RFU). Data were plotted using GraphPad Prism (v4.0a) and IC50's calculated using a sigmoidal dose response curve fitting algorithm. Each assay was setup as follows: Defrosted all kit components and kept on ice until use. Diluted HeLa nuclear extract 1:29 in Assay Buffer (50 mM Tris/Cl, pH 8.0, 137 mM NaCl, 2.7 mM KCl, 1 mM MgCl2). Prepared dilutions of Trichostatin A (TSA, positive control) and tested compounds in assay buffer (5× of final concentration). Diluted Fluor de Lys™ Substrate in assay buffer to 100 uM (50 fold=2× final). Diluted Fluor de Lys™ developer concentrate 20-fold (e.g. 50 μl plus 950 μl Assay Buffer) in cold assay buffer. Second, diluted the 0.2 mM Trichostatin A 100-fold in the 1× Developer (e.g. 10 μl in 1 ml; final Trichostatin A concentration in the 1× Developer=2 μM; final concentration after addition to HDAC/Substrate reaction=1 μM). Added Assay buffer, diluted trichostatin A or test inhibitor to appropriate wells of the microtiter plate. Added diluted HeLa extract or other HDAC sample to all wells except for negative controls. Allowed diluted Fluor de Lys™ Substrate and the samples in the microtiter plate to equilibrate to assay temperature (e.g. 25 or 37° C. Initiated HDAC reactions by adding diluted substrate (25 μl) to each well and mixing thoroughly. Allowed HDAC reactions to proceed for 1 hour and then stopped them by addition of Fluor de Lys™ Developer (50 μl). Incubated plate at room temperature (25° C.) for 10-15 min. Read samples in a microtiter-plate reading fluorimeter capable of excitation at a wavelength in the range 350-380 nm and detection of emitted light in the range 440-460 nm.

[2] = target: T1, human EGFR (Homo sapiens, UniProt P00533); assay: EGFR kinase assay (HTScan EGF Receptor Kinase Assay Kit, DELFIA); type: biochemical; conditions: 200 μM ATP
T1 construct: human EGFR (His672-Ala1210); purchased Cell Signaling Technologies; host or cells: baculovirus expression system
T1 sequence (P00533 672-1210): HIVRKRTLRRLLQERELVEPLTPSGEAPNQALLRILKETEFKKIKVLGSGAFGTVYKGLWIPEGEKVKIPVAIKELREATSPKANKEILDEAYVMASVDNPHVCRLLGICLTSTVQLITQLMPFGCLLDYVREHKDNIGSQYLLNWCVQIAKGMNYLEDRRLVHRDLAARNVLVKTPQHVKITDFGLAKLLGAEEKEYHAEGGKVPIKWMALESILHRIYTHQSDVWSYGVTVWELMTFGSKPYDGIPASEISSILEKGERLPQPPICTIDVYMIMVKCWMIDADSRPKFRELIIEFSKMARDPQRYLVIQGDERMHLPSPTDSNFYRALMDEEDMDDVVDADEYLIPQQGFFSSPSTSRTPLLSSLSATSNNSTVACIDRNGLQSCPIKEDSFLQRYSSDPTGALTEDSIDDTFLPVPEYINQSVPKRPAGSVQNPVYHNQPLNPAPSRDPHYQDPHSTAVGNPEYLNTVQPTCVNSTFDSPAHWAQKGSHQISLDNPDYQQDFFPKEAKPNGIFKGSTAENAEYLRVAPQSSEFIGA
Experimental: (e) An In Vitro Assay which Determines the Ability of a Test Compound to Inhibit EGFR Kinase.
The ability of compounds to inhibit receptor kinase (EGFR) activity was assayed using HTScan™ EGF Receptor Kinase Assay Kits (Cell Signaling Technologies, Danvers, Mass.). EGFR tyrosine kinase was obtained as GST-kinase fusion protein which was produced using a baculovirus expression system with a construct expressing human EGFR (His672-Ala1210) (GenBank Accession No. NM_005228) with an amino-terminal GST tag. The protein was purified by one-step affinity chromatography using glutathione-agarose. An anti-phosphotyrosine monoclonal antibody, P-Tyr-100, was used to detect phosphorylation of biotinylated substrate peptides (EGFR), Biotin-PTP1B (Tyr66). Enzymatic activity was tested in 60 mM HEPES, 5 mM MgCl2 5 mM MnCl2 200 μM ATP, 1.25 mM DTT, 3 μM Na3VO4, 1.5 mM peptide, and 50 ng EGF Receptor Kinase. Bound antibody was detected using the DELFIA system (PerkinElmer, Wellesley, Mass.) consisting of DELFIA® Europium-labeled Anti-mouse IgG (PerkinElmer, #AD0124), DELFIA® Enhancement Solution (PerkinElmer, #1244-105), and a DELFIA® Streptavidin coated, 96-well Plate (PerkinElmer, AAAND-0005). Fluorescence was measured on a WALLAC Victor 2 plate reader and reported as relative fluorescence units (RFU). Data were plotted using GraphPad Prism (v4.0a) and IC50's calculated using a sigmoidal dose response curve fitting algorithm.
Test compounds were dissolved in dimethylsulfoxide (DMSO) to give a 20 mM working stock concentration. Each assay was setup as follows: Added 100 μl of 10 mM ATP to 1.25 ml 6 mM substrate peptide. Diluted the mixture with dH2O to 2.5 ml to make 2×ATP/substrate cocktail ([ATP]=[…], [substrate]=3 mM). Immediately transfer enzyme from −80° C. to ice. Allowed enzyme to thaw on ice. Microcentrifuged briefly at 4° C. to bring liquid to the bottom of the vial. Returned immediately to ice. Added 10 μl of DTT (1.25 mM) to 2.5 ml of 4× HTScan™ Tyrosine Kinase Buffer (240 mM HEPES pH 7.5, 20 mM MgCl2, 20 mM MnCl, 12 mM NaVO3) to make DTT/Kinase buffer. Transfer 1.25 ml of DTT/Kinase buffer to enzyme tube to make 4× reaction cocktail ([enzyme]=4 ng/μL in 4× reaction cocktail). Incubated 12.5 μl of the 4× reaction cocktail with 12.5 μl/well of prediluted compound of interest (usually around 10 μM) for 5 minutes at room temperature. Added 25 μl of 2×ATP/substrate cocktail to 25 μl/well preincubated reaction cocktail/compound. Incubated reaction plate at room temperature for 30 minutes. Added 50 μl/well Stop Buffer (50 mM EDTA, pH 8) to stop the reaction. Transferred 25 μl of each reaction and 75 μl dH2O/well to a 96-well streptavidin-coated plate and incubated at room temperature for 60 minutes. Washed three times with 200 μl/well PBS/T (PBS, 0.05% Tween-20). Diluted primary antibody, Phospho-Tyrosine mAb (P-Tyr-100), 1:1000 in PBS/T with 1% bovine serum albumin (BSA). Added 100 μl/well primary antibody. Incubated at room temperature for 60 minutes. Washed three times with 200 μl/well PBS/T. Diluted Europium labeled anti-mouse IgG 1:500 in PBS/T with 1% BSA. Added 100 μl/well diluted antibody. Incubated at room temperature for 30 minutes. Washed five times with 200 μl/well PBS/T. Added 100 μl/well DELFIA® Enhancement Solution. Incubated at room temperature for 5 minutes. Detected 615 nm fluorescence emission with appropriate Time-Resolved Plate Reader.

| Structure (SMILES) | IC50 [1] | IC50 [2] |
| --- | --- | --- |
| COc1cc2ncnc(Nc3ccc4occc4c3)c2cc1OCCCCCCC(=O)NO [Compound 2, 7-(4-(benzofuran-5-ylamino)-7-methoxyquinazolin-6-yloxy)-N-hydroxyheptanamide] | < 100 nM | < 100 nM |
| COc1cc2c(Oc3ccc4[nH]c(C)cc4c3F)ncnc2cc1OCCCCCC(=O)NO [Compound 10, 6-(4-(4-fluoro-2-methyl-1H-indol-5-yloxy)-6-methoxyquinazolin-7-yloxy)-N-hydroxyhexanamide] | 100 to 1000 nM | 100 to 1000 nM |
| COc1cc2c(Oc3ccc4[nH]c(C)cc4c3F)ncnc2cc1OCCCCCCC(=O)NO [Compound 11, 7-(4-(4-fluoro-2-methyl-1H-indol-5-yloxy)-6-methoxyquinazolin-7-yloxy)-N-hydroxyheptanamide] | 100 to 1000 nM | 1000 to 10000 nM |
| COc1cc2c(Nc3ccc4[nH]c(C)cc4c3F)ncnc2cc1OCCCCCC(=O)NO [Compound 13, 6-(4-(4-fluoro-2-methyl-1H-indol-5-ylamino)-6-methoxyquinazolin-7-yloxy)-N-hydroxyhexanamide] | < 100 nM | 100 to 1000 nM |
| COc1cc2c(Nc3ccc4[nH]c(C)cc4c3F)ncnc2cc1OCCCCCCC(=O)NO [Compound 14, 7-(4-(4-fluoro-2-methyl-1H-indol-5-ylamino)-6-methoxy-quinazolin-7-yloxy)-N-hydroxyheptanamide] | < 100 nM | < 100 nM |
| Cc1cc2c(F)c(Oc3ncnc4cc(OCCCN5CCCC5)c(OCCCCCC(=O)NO)cc34)ccc2[nH]1 [Compound 16, 6-(4-(4-fluoro-2-methyl-1H-indol-5-yloxy)-7-(3-(pyrrolidin-1-yl)propoxy)quinazolin-6-yloxy)-N-hydroxyhexanamide] | 100 to 1000 nM | 1000 to 10000 nM |
| Cc1cc2c(F)c(Oc3ncnc4cc(OCCCN5CCCC5)c(OCCCCCCC(=O)NO)cc34)ccc2[nH]1 [Compound 17] | < 100 nM | 1000 to 10000 nM |
| Cc1cc2c(F)c(Nc3ncnc4cc(OCCCN5CCCC5)c(OCCCCC(=O)NO)cc34)ccc2[nH]1 [Compound 18, 5-(4-(4-fluoro-2-methyl-1H-indol-5-ylamino)-7-(3-(pyrrolidin-1-yl)propoxy)quinazolin-6-yloxy)-N-hydroxypentanamide] | 100 to 1000 nM | 100 to 1000 nM |
| Cc1cc2c(F)c(Nc3ncnc4cc(OCCCN5CCCC5)c(OCCCCCC(=O)NO)cc34)ccc2[nH]1 [Compound 19, 6-(4-(4-Fluoro-2-methyl-1H-indol-5-ylamino)-7-(3-(pyrrolidin-1-yl)propoxy)quinazolin-6-yloxy)-N-hydroxyhexanamide] | 100 to 1000 nM | < 100 nM |
| Cc1cc2c(F)c(Nc3ncnc4cc(OCCCN5CCCC5)c(OCCCCCCC(=O)NO)cc34)ccc2[nH]1 [Compound 20, 7-(4-(4-Fluoro-2-methyl-1H-indol-5-ylamino)-7-(3-(pyrrolidin-1-yl)propoxy)quinazolin-6-yloxy)-N-hydroxyheptanamide] | – | 1000 to 10000 nM |
